Values of other authors, collected in patent US20230285429A1, “CANNABINOID ACID FORMULATIONS, DELIVERY SYSTEMS, AND METHODS OF USE” (Flora Growth U.S. Holdings Corp., priority 2022, published 2023).

What was measured:
[1] = target: spike protein of SARS-CoV-2 (Severe acute respiratory syndrome coronavirus 2, UniProt P0DTC2)
[2] = fatty acids, intestinal lymph

| Compound | affinity for the spike protein [1] | percentage transported to the lymph system [2] |
| --- | --- | --- |
| C=C(C)[C@@H]1CCC(C)=C[C@H]1c1c(O)cc(CCCCC)c(C(=O)O)c1O [CBDA, cannabidiolic acid] | high affinity | – |
| CCCCCc1cc(O)c(C/C=C(\C)CCC=C(C)C)c(O)c1C(=O)O [CBGA, cannabigerolic acid] | high affinity | – |
| CCCCCCCCCC(=O)O [decanoic] | – | 13% |
| CCCCCCCCCCCC(=O)O [lauric] | – | 28% |
| CCCCC/C=C\C/C=C\CCCCCCCC(=O)O [linoleic] | – | 32% |
